In patent US9789111B2, “Casein kinase 1δ (CK 1δ) inhibitors” (Electrophoretics Limited, priority 2010, dated 2017):

Tests used:
CK1g1 = CK1g1 (Homo sapiens, UniProt Q9HCP0); assay: kinase inhibition assay panel; assay type: biochemical
JNK2 = JNK2 (Homo sapiens, UniProt P45984); assay: kinase inhibition assay panel; assay type: biochemical
Protocol: (§1) Base Reaction buffer; 20 mM Hepes (pH 7.5), 10 mM MgCl2, 1 mM EGTA, 0.02% Brij35, 0.02 mg/ml BSA, 0.1 mM Na3VO4, 2 mM DTT, 1% DMSO
(§2) It should be noted that required cofactors are added individually to each kinase reaction.
(§3) • 1. Prepare indicated substrate in freshly prepared Base Reaction Buffer as described above • 2. Deliver any required cofactors to the substrate solution • 3. Deliver indicated kinase into the substrate solution and gently mix • 4. Deliver compounds in DMSO into the kinase reaction mixture • 5. Deliver ^33P-ATP (specific activity 0.01 μCi/μl final) into the reaction mixture to initiate the reaction • 6. Incubate kinase reaction for 120 min. at room temperature • 7. Reactions are spotted onto P81 ion exchange paper (Whatman #3698-915) • 8. Wash filters extensively in 0.75% Phosphoric acid Kinase Information: • CK1δ—Genbank Accession # NP_620693 • Recombinant human full-length construct. GST-tagged, expressed in insect cells. • Final concentration in assay=4 nM • Substrate: CK1tide • Substrate sequence: [KRRRAL[pS]VASLPGL] • Final substrate concentration in assay=20 μM • It should be noted that no additional cofactors are added to the reaction mixture.

ABL2/ARG = ABL2/ARG (Homo sapiens, UniProt P42684); assay: kinase inhibition assay panel; assay type: biochemical
Protocol: as §1, §2, §3

CDK5/p25 = CDK5/p25 (Homo sapiens, UniProt Q00535); assay: kinase inhibition assay panel; assay type: biochemical
Protocol: as §1, §2, §3

KDR/VEGFR2 = KDR/VEGFR2 (Homo sapiens, UniProt P35968); assay: kinase inhibition assay panel; assay type: biochemical
Protocol: as §1, §2, §3

LCK = LCK (Homo sapiens, UniProt P06239); assay: kinase inhibition assay panel; assay type: biochemical
Protocol: as §1, §2, §3

c-SRC = c-SRC (Homo sapiens, UniProt P12931); assay: kinase inhibition assay panel; assay type: biochemical
Protocol: as §1, §2, §3

PDK1/PDPK1 = target: T1, PDK1/PDPK1 (Homo sapiens, UniProt O15530); assay: kinase inhibition assay panel; assay type: biochemical
T1 sequence (O15530 1-556): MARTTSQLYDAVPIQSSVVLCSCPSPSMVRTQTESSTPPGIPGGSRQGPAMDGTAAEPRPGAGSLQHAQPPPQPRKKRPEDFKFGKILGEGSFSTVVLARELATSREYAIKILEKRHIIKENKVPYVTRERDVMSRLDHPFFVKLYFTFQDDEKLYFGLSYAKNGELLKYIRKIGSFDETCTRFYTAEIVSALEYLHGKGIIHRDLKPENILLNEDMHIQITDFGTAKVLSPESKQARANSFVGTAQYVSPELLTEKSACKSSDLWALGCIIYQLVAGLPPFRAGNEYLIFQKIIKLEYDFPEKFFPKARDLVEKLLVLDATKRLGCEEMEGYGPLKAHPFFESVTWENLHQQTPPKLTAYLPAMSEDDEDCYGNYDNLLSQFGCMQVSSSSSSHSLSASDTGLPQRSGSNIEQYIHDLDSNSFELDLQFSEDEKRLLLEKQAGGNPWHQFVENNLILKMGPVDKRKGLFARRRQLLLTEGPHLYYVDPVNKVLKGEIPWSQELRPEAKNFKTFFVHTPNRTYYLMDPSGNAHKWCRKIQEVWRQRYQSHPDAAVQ
Protocol: as §1, §2, §3

HGK/MAP4K4 = HGK/MAP4K4 (Homo sapiens, UniProt O95819); assay: kinase inhibition assay panel; assay type: biochemical
Protocol: as §1, §2, §3

PKCa = PKCa (Homo sapiens, UniProt P17252); assay: kinase inhibition assay panel; assay type: biochemical
Protocol: as §1, §2, §3

SH-SY5Y-TMHT cells = assay: Cell viability, MTT assay; assay type: cell-based, human; conditions: 6 h of treatment
Protocol: SH-SY5Y-TMHT cells are kept in culture medium (DMEM medium, 10% FCS, 1% NEAA, 1% L-Glutamine, 100 μg/ml Gentamycin, 300 μg/ml Geneticin G-418) for 2 days until 80-90% confluency. Cells are then differentiated in culture medium supplemented with 10 μM retinoic acid (RA) for 7 days changing medium every 2 to 3 days. Differentiated cells are seeded onto 6-well plates and 96-well plates at a cell density of 1.25×10^6 and 8×10^5 cells per well, respectively. On day 8 post-differentiation, the test compounds, reference compounds and vehicle control were added to the culture medium. After 6 h of compound exposure one plate of cells is subjected to a MTT assay to evaluate the effect of test and reference items on cell viability. Remaining wells are washed once with cold PBS and harvested in 300 μl RIPA-Buffer [50 mM Tris pH 7.4, 1% Nonident P40, 0.25% Na-deoxy-cholate, 150 mM NaCl, 1 mM EDTA, 1 μM NaF, 1 μM Na-ortho-vanadate, 80 mM Glycerophosphate, supplemented with freshly added protease (Calbiochem) and phosphatase (Sigma) inhibitor cocktail]. The cell suspension is transferred into a 1.5 ml tube and additionally lysed by sonication on ice. An aliquot of 20 μl is taken for the determination of the protein concentration (BCA assay). Subsequently, the lysates are snap frozen and stored at −80° C. until shipment.
To determine compound activity, it is necessary to control for potential cell toxicity of all molecules. Viability of cultures is determined by the MTT assay. This assay allows the measurement of the mitochondrial dehydrogenase activity which reduces yellow MTT to dark blue formazan crystals. Since this reaction is catalyzed in living cells only this assay is used for the determination of cell viability. MTT solution is added to each well in a final concentration of 0.5 mg/ml. After 2 hours, the MTT containing medium is aspired. Cells are lysed in 3% SDS and the formazan crystals are dissolved in isopropanol/HCl. Optical density is measured with a plate-reader at wavelength 570 nm. Cell survival rate is expressed as optical density (OD). Values are calculated as percent of control values.
Cell viability was determined in differentiated SH-SY5Y-TMHT cells by the MTT assay. Test and reference compounds were applied in a concentration range from 0.05 μM to 10 μM and from 0.1 μM to 1 μM, respectively. Upon 6 h of treatment, cell viability was evaluated. […] Statistical significance is indicated by *<0.05, **<0.01, ***<0.001 as determined by One-Way ANOVA. Data are shown from two independent experiments as group mean+/−SEM (n=8). […] Statistical significance is indicated by *<0.05, **<0.01, ***<0.001 as determined by One-Way ANOVA. […] Statistical significance is indicated by *<0.05, **<0.01, ***<0.001 as determined by One-Way ANOVA. […]

Sequence of KDR/VEGFR2 (P35968 20-1356): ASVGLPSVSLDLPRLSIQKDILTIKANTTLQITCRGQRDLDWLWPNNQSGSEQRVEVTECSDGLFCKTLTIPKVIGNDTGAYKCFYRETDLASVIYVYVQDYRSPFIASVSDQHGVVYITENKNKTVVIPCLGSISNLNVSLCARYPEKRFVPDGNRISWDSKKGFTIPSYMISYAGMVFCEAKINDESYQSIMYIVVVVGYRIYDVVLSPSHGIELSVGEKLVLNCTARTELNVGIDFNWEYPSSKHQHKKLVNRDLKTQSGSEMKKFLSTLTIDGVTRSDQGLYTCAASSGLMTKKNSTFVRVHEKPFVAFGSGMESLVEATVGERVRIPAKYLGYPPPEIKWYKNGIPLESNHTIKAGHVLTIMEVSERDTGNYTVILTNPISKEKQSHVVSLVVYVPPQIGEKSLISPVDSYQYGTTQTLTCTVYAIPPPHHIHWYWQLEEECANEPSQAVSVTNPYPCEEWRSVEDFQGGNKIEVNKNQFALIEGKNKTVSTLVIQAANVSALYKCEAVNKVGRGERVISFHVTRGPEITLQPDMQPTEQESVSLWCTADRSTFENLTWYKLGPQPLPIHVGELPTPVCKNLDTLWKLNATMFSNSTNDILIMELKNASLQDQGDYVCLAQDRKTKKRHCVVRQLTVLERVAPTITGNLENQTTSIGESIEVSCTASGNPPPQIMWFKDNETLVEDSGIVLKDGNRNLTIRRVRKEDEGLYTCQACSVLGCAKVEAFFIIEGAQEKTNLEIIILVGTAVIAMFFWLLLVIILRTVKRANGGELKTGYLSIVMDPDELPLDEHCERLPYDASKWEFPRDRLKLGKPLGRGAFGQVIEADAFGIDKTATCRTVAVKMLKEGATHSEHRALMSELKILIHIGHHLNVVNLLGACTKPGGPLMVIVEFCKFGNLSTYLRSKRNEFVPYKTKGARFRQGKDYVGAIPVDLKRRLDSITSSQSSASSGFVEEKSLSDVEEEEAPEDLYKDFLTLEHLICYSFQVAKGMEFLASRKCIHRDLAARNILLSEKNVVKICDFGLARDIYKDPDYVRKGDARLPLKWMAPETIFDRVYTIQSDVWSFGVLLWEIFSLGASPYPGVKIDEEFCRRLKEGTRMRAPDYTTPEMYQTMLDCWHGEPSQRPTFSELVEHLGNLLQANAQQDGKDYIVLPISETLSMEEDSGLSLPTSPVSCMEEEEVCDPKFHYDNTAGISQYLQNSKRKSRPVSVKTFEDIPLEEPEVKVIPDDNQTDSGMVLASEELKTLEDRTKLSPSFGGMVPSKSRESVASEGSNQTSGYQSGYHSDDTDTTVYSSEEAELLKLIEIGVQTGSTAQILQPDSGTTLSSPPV
Sequence of CK1g1 (Q9HCP0 whole entry): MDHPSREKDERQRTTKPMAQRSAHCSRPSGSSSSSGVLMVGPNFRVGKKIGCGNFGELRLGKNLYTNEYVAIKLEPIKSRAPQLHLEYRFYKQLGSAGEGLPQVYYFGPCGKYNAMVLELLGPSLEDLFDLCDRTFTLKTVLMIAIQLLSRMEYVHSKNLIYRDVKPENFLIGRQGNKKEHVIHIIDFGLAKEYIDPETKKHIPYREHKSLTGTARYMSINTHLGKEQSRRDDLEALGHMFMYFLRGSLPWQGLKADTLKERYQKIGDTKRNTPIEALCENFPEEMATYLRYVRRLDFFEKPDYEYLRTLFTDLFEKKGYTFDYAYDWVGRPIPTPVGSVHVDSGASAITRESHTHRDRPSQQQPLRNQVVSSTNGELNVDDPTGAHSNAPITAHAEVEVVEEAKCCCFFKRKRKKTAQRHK
Sequence of HGK/MAP4K4 (O95819 whole entry): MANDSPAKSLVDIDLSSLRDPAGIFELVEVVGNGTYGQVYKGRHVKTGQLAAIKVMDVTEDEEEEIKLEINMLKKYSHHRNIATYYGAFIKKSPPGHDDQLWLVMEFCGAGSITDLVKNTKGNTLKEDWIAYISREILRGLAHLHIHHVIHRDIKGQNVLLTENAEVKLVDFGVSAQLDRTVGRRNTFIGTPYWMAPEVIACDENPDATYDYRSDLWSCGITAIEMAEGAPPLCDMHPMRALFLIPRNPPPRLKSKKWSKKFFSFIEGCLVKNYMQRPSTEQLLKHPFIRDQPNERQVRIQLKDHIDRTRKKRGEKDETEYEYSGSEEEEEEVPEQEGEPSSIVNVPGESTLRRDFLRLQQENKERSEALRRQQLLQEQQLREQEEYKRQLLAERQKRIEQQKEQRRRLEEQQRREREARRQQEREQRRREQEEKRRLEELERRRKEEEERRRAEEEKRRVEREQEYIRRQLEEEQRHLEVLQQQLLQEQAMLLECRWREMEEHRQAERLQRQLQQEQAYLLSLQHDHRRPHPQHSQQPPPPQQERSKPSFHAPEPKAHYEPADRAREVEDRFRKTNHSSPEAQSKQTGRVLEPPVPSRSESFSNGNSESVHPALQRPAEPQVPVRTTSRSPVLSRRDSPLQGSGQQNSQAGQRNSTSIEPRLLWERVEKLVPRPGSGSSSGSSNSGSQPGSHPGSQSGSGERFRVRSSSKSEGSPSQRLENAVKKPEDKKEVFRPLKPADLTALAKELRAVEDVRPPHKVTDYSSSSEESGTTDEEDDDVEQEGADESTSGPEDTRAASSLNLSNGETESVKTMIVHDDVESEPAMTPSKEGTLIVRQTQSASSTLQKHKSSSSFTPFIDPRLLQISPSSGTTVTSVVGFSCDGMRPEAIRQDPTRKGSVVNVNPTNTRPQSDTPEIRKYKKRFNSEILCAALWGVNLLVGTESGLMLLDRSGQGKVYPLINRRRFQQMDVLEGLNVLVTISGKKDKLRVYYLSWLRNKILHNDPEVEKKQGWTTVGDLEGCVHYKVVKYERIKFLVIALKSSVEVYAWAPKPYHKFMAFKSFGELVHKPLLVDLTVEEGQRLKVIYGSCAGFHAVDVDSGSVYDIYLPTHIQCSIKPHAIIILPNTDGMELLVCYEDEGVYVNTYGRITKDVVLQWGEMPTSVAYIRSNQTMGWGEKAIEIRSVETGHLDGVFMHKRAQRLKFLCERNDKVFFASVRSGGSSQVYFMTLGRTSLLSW
Sequence of CDK5/p25 (Q00535 whole entry, species assumed): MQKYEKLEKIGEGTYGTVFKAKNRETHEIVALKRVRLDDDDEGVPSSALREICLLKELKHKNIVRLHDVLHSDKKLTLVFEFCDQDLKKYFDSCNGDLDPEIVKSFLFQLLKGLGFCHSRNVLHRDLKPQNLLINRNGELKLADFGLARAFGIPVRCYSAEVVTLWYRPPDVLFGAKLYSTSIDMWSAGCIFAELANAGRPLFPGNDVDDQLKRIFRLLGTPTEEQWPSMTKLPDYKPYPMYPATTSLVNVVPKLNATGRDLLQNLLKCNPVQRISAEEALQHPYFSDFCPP
Sequence of CDK5/p25 (Q15078 99-307 partner limits assumed, species assumed): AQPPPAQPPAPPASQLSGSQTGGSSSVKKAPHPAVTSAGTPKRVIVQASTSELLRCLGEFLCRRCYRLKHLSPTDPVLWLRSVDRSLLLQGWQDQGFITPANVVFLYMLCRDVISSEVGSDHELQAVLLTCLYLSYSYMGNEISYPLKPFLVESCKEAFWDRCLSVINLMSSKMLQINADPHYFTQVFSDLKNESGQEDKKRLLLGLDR
Sequence of ABL2/ARG (P42684 whole entry): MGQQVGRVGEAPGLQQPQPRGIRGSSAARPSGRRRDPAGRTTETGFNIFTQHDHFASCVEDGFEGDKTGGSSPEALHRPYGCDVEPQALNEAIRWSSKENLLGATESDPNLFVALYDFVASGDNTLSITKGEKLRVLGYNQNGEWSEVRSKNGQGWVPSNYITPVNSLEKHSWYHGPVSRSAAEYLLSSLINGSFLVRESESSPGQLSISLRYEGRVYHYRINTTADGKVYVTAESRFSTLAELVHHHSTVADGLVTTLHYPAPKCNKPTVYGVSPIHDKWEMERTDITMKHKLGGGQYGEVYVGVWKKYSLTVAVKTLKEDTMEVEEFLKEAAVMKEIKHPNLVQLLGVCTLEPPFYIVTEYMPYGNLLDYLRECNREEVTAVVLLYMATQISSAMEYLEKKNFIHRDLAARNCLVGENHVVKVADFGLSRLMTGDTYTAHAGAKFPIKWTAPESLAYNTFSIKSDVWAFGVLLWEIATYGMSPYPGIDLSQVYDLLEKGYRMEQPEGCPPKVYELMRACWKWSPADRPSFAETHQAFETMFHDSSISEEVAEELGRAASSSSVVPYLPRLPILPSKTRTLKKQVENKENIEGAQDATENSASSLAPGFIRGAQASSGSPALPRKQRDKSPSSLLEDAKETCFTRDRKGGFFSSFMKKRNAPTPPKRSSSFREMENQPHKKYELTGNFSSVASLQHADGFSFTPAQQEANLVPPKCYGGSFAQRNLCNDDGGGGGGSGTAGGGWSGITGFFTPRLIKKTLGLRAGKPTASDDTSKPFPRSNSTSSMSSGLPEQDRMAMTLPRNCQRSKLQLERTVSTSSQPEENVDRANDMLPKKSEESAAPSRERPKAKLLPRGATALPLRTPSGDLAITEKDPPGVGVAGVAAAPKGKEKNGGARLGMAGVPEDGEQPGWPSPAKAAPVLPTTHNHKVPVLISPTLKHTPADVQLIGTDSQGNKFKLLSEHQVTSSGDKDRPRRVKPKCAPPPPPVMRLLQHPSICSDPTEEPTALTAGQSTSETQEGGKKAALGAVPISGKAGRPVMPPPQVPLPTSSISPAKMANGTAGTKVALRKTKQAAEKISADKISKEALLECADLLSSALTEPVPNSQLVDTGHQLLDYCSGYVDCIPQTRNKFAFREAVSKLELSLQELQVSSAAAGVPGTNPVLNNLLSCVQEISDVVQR

Structure (SMILES): Nc1ncc(-c2nc3ccccc3o2)c(-c2ccncc2)n1 [Compound 324, 5-(1,3-benzoxazol-2-yl)-4-(pyridin-4-yl)pyrimidin-2-amine]
- inhibition of CK1g1 (CK1g1): lower than 40%
- inhibition of JNK2 (JNK2): lower than 40%
- inhibition of ABL2/ARG (ABL2/ARG): lower than 40%
- inhibition of CDK5/p25 (CDK5/p25): lower than 40%
- inhibition of KDR/VEGFR2 (KDR/VEGFR2): lower than 40%
- inhibition of LCK (LCK): lower than 40%
- inhibition of c-SRC (c-SRC): lower than 40%
- inhibition of PDK1/PDPK1 (PDK1/PDPK1): lower than 40%
- inhibition of HGK/MAP4K4 (HGK/MAP4K4): lower than 40%
- inhibition of PKCa (PKCa): lower than 40%
- effect on the cell viability of SH-SY5Y-TMHT cells (SH-SY5Y-TMHT cells; 0.05 μM to 10 μM, vs vehicle control): protective effect on the cell viability of SH-SY5Y-TMHT cells in a dose dependent manner
- protective effect on cell viability, statistical significance (SH-SY5Y-TMHT cells; 10 μM, One-Way ANOVA): statistically significant

Structure (SMILES): NC(=O)c1c(N)c(C(=O)c2ccc(F)cc2)n2ccccc12 [Compound 987, 2-amino-3-[(4-fluorophenyl)carbonyl]indolizine-1-carboxamide]
- inhibition of CK1g1 (CK1g1): lower than 40%
- inhibition of JNK2 (JNK2): lower than 40%
- inhibition of ABL2/ARG (ABL2/ARG): lower than 40%
- inhibition of CDK5/p25 (CDK5/p25): lower than 40%
- inhibition of KDR/VEGFR2 (KDR/VEGFR2): lower than 40%
- inhibition of LCK (LCK): lower than 40%
- inhibition of c-SRC (c-SRC): lower than 40%
- inhibition of PDK1/PDPK1 (PDK1/PDPK1): lower than 40%
- inhibition of HGK/MAP4K4 (HGK/MAP4K4): lower than 40%
- inhibition of PKCa (PKCa): lower than 40%
- effect on the cell viability of SH-SY5Y-TMHT cells (SH-SY5Y-TMHT cells; 1 and 0.5 μM): no cytotoxic effect
